# Results as given in patent US12660819B2, “Herbicidal derivatives” (SYNGENTA CROP PROTECTION AG, priority 2020, dated 2026).
# Key:
# Type in all cases: in vivo
# Lolium perenne (LOLPE) [1] = experiment: Pre-emergence Test (glasshouse, percentage damage to the plant); settings: 1000 g/ha unless otherwise stated, five-point scale
# [2] = test system: Amaranthus retoflexus (AMARE); experiment: as above; settings: 1000 g/ha unless otherwise stated; for percentage damage to the plant, AMARE: five-point scale; for percentage damage to the plant, AMARE (five-point scale): Amaranthus retoflexus
# Setaria faberi (SETFA) [3] = experiment: as above; settings: 1000 g/ha unless otherwise stated; for percentage damage to the plant, SETFA: five-point scale; for percentage damage to the plant, SETFA (five-point scale): Setaria faberi
# Lolium perenne (LOLPE) [4] = experiment: Post-emergence Test (glasshouse, percentage damage to the plant); settings: post-emergence spray, 1000 g/ha unless otherwise stated, evaluated after 13 days
# Outline: (§1)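 After sowing in standard soil, pots were kept at 24/16 °C (day/night), 14 h light and 65% humidity. They were sprayed at 1000 g/ha unless otherwise stated, watered twice daily, and assessed for percentage damage at 13 days on a 1–5 scale.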
# [5] = test system: Ipomoea hederacea (IPOHE); experiment: as above; settings: 1000 g/ha unless otherwise stated, evaluated after 13 days; for Post-emergence Test IPOHE, percentage damage to the plant (five-point scale): post-emergence spray; for IPOHE, percentage damage caused to the plant (five-point scale): post-emergence
# Outline: (§2)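 Seeds are sown in standard soil under controlled glasshouse conditions. The pots are then sprayed at 1000 g/ha, unless otherwise stated, with compound in acetone/water (50:50) containing 0.5% Tween 20. After 13 days further growth, percentage plant damage is scored from 1 (0-20%) to 5 (81-100%).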
# [6] = test system: Echinochloa crus-galli (ECHCG); experiment: as above; settings: 1000 g/ha unless otherwise stated, evaluated after 13 days; for Post-emergence Test ECHCG, percentage damage to the plant (five-point scale): post-emergence spray; for ECHCG, percentage damage caused to the plant (five-point scale): post-emergence
# Outline: as §1
# [7] = test system: Amaranthus retoflexus (AMARE); experiment: as above; settings: 1000 g/ha unless otherwise stated, evaluated after 13 days; for Post-emergence Test AMARE, percentage damage to the plant (five-point scale): post-emergence spray; for AMARE, percentage damage caused to the plant (five-point scale): post-emergence
# Outline: as §1
# Solanum nigrum (SOLNI) [8] = experiment: as above; settings: post-emergence spray, 1000 g/ha unless otherwise stated, evaluated after 13 days
# Outline: as §1
# Setaria faberi (SETFA) [9] = experiment: as above; settings: 1000 g/ha unless otherwise stated, evaluated after 13 days; for Post-emergence Test SETFA, percentage damage to the plant (five-point scale): post-emergence spray; for SETFA, percentage damage caused to the plant (five-point scale): post-emergence
# Outline: as §2
# [10] = test system: Echinochloa crus-galli (ECHCG); experiment: Pre-emergence Test (glasshouse, percentage damage to the plant); settings: 1000 g/ha unless otherwise stated; for percentage damage to the plant, ECHCG: five-point scale; for percentage damage to the plant, ECHCG (five-point scale): Echinochloa crus-galli
# Solanum nigrum (SOLNI) [11] = experiment: as above; settings: 1000 g/ha unless otherwise stated, five-point scale
# [12] = test system: Ipomoea hederacea (IPOHE); experiment: as above; settings: 1000 g/ha unless otherwise stated; for percentage damage to the plant, IPOHE: five-point scale; for percentage damage to the plant, IPOHE (five-point scale): Ipomoea hederacea
# [13] = test system: Amaranthus palmeri (AMAPA); experiment: as above; settings: 1000 g/ha unless otherwise stated, Amaranthus palmeri
# Zea mays (ZEAMX) [14] = experiment: as above; settings: 1000 g/ha unless otherwise stated, Zea mays
# Zea mays (ZEAMX) [15] = experiment: Post-emergence Test (glasshouse, percentage damage to the plant); settings: post-emergence; 1000 g/ha unless otherwise stated; evaluated after 13 days
# Outline: as §2
# [16] = test system: Amaranthus palmeri (AMAPA); experiment: as above; settings: post-emergence; 1000 g/ha unless otherwise stated; evaluated after 13 days
# Outline: as §1
Structure (SMILES),"percentage damage to the plant, LOLPE (Lolium perenne (LOLPE) [1])","percentage damage to the plant, AMARE [2]","percentage damage to the plant, SETFA (Setaria faberi (SETFA) [3])","Post-emergence Test LOLPE, percentage damage to the plant (five-point scale) (Lolium perenne (LOLPE) [4])","Post-emergence Test IPOHE, percentage damage to the plant (five-point scale) [5]","Post-emergence Test ECHCG, percentage damage to the plant (five-point scale) [6]","Post-emergence Test AMARE, percentage damage to the plant (five-point scale) [7]","Post-emergence Test SOLNI, percentage damage to the plant (five-point scale) (Solanum nigrum (SOLNI) [8])","Post-emergence Test SETFA, percentage damage to the plant (five-point scale) (Setaria faberi (SETFA) [9])","percentage damage to the plant, ECHCG [10]","percentage damage to the plant, IPOHE [12]","percentage damage to the plant, AMAPA (five-point scale) [13]","percentage damage to the plant, ZEAMX (five-point scale) (Zea mays (ZEAMX) [14])","percentage damage to the plant, AMARE (five-point scale) [2]","percentage damage to the plant, SETFA (five-point scale) (Setaria faberi (SETFA) [3])","ZEAMX, percentage damage caused to the plant (five-point scale) (Zea mays (ZEAMX) [15])","IPOHE, percentage damage caused to the plant (five-point scale) [5]","ECHCG, percentage damage caused to the plant (five-point scale) [6]","AMARE, percentage damage caused to the plant (five-point scale) [7]","SETFA, percentage damage caused to the plant (five-point scale) (Setaria faberi (SETFA) [9])",also measured
"CCn1c(C)c(-c2ccoc2)c(=O)c(C(=O)O)c1-c1ccc(Cl)c(Cl)c1 [Compound 33, 2-(3,4-dichlorophenyl)-1-ethyl-5-(3-furyl)-6-methyl-4-oxo-pyridine-3-carboxylic acid]",1 (1=0-20%),1 (1=0-20%),1 (1=0-20%),2 (2=21-40%),3 (3=41-60%),2 (2=21-40%),3 (3=41-60%),3 (3=41-60%),1 (1=0-20%),1 (1=0-20%),2 (2=21-40%),–,–,–,–,–,–,–,–,–,"percentage damage to the plant, SOLNI (Solanum nigrum (SOLNI) [11]): 1 (1=0-20%)"
"CCn1c(C)c(-c2ccc(Cl)cc2)c(=O)c(C(=O)NN(C)C)c1-c1ccc(Cl)c(Cl)c1 [Compound 2, 5-(4-chlorophenyl)-2-(3,4-dichlorophenyl)-1-ethyl-N′,N′,6-trimethyl-4-oxo-pyridine-3-carbohydrazide]",1 (1=0-20%),3 (3=41-60%),1 (1=0-20%),1 (1=0-20%),2 (2=21-40%),2 (2=21-40%),3 (3=41-60%),–,4 (4=61-80%),1 (1=0-20%),–,–,–,–,–,–,–,–,–,–,–
"CCn1c(COC)c(-c2ccc(Cl)cc2)c(=O)c(C(=O)O)c1-c1ccc(Cl)c(Cl)c1 [Compound 7, 5-(4-chlorophenyl)-2-(3,4-dichlorophenyl)-1-ethyl-6-(methoxymethyl)-4-oxo-pyridine-3-carboxylic acid]",1 (1=0-20%),–,2 (2=21-40%),1 (1=0-20%),2 (2=21-40%),4 (4=61-80%),5 (5=81-100%),2 (2=21-40%),4 (4=61-80%),2 (2=21-40%),1 (1=0-20%),–,–,–,–,–,–,–,–,–,"percentage damage to the plant, SOLNI (Solanum nigrum (SOLNI) [11]): 1 (1=0-20%)"
"CCn1c(C)c(-c2cccnc2)c(=O)c(C(=O)O)c1-c1ccc(Cl)c(Cl)c1 [Compound 21, 2-(3,4-dichlorophenyl)-1-ethyl-6-methyl-4-oxo-5-pyridin-1-ium-3-yl-pyridine-3-carboxylic acid;2,2,2-trifluoroacetate]",–,–,3 (3=41-60%),–,3 (3=41-60%),3 (3=41-60%),3 (3=41-60%),4 (4=61-80%),–,2 (2=21-40%),–,–,–,–,–,–,–,–,–,–,–
"CCn1c(C)c(-c2ccc(Cl)nc2)c(=O)c(C(=O)O)c1-c1ccc(Cl)c(Cl)c1 [Compound 12, 5-(6-chloro-3-pyridyl)-2-(3,4-dichlorophenyl)-1-ethyl-6-methyl-4-oxo-pyridine-3-carboxylic acid]",1 (1=0-20%),5 (5=81-100%),5 (5=81-100%),3 (3=41-60%),4 (4=61-80%),4 (4=61-80%),5 (5=81-100%),–,5 (5=81-100%),4 (4=61-80%),1 (1=0-20%),–,–,–,–,–,–,–,–,–,–
"CCn1c(C)c(-c2ccc(F)cc2F)c(=O)c(C(=O)O)c1-c1ccc(-c2ccc(F)cc2F)c(Cl)c1 [Compound 4, 2-[3-chloro-4-(2,4-difluorophenyl)phenyl]-5-(2,4-difluorophenyl)-1-ethyl-6-methyl-4-oxo-pyridine-3-carboxylic acid]",1 (1=0-20%),1 (1=0-20%),1 (1=0-20%),1 (1=0-20%),2 (2=21-40%),1 (1=0-20%),3 (3=41-60%),–,2 (2=21-40%),1 (1=0-20%),1 (1=0-20%),–,–,–,–,–,–,–,–,–,–
"CCn1c(C)c(-c2ccc(F)cc2)c(=O)c(C(=O)OC)c1-c1cnc(Cl)c(Cl)c1 [Compound 212, methyl 2-(5,6-dichloro-3-pyridyl)-1-ethyl-5-(4-fluorophenyl)-6-methyl-4-oxo-pyridine-3-carboxylate]",–,–,–,–,–,–,–,–,–,–,–,1 (1=0-20%),0,0,3 (3=41-60%),0,0,0,1 (1=0-20%),0,"AMAPA, percentage damage caused to the plant (five-point scale) [16]: 1 (1=0-20%); percentage damage to the plant, ECHCG (five-point scale) [10]: 2 (2=21-40%); percentage damage to the plant, IPOHE (five-point scale) [12]: 0"
"CCn1c(C)c(-c2cc(OCCOC)c(Cl)cc2F)c(=O)c(C(=O)O)c1-c1ccc(F)c(F)c1 [Compound 261, 5-[4-chloro-2-fluoro-5-(2-methoxyethoxy)phenyl]-2-(3,4-difluorophenyl)-1-ethyl-6-methyl-4-oxo-pyridine-3-carboxylic acid]",–,–,–,–,–,–,–,–,–,–,–,5 (5=81-100%),1 (1=0-20%),4 (4=61-80%),4 (4=61-80%),3 (3=41-60%),2 (2=21-40%),4 (4=61-80%),5 (5=81-100%),4 (4=61-80%),"AMAPA, percentage damage caused to the plant (five-point scale) [16]: 4 (4=61-80%); percentage damage to the plant, ECHCG (five-point scale) [10]: 4 (4=61-80%); percentage damage to the plant, IPOHE (five-point scale) [12]: 4 (4=61-80%)"
"CCn1c(C)c(-c2ccc(Cl)cc2)c(=O)c(C(=O)OC)c1-c1cnc(Cl)c(Cl)c1 [Compound 215, methyl 5-(4-chlorophenyl)-2-(5,6-dichloro-3-pyridyl)-1-ethyl-6-methyl-4-oxo-pyridine-3-carboxylate]",–,–,–,–,–,–,–,–,–,–,–,3 (3=41-60%),0,4 (4=61-80%),4 (4=61-80%),3 (3=41-60%),1 (1=0-20%),3 (3=41-60%),4 (4=61-80%),3 (3=41-60%),"AMAPA, percentage damage caused to the plant (five-point scale) [16]: 4 (4=61-80%); percentage damage to the plant, ECHCG (five-point scale) [10]: 2 (2=21-40%); percentage damage to the plant, IPOHE (five-point scale) [12]: 1 (1=0-20%)"
"CCn1c(C)c(-c2ccc(F)cc2F)c(=O)c(C(=O)O)c1-c1ccc(Cl)c(Cl)c1 [Compound 3, 2-(3,4-dichlorophenyl)-5-(2,4-difluorophenyl)-1-ethyl-6-methyl-4-oxo-pyridine-3-carboxylic acid]",3 (3=41-60%),5 (5=81-100%),5 (5=81-100%),4 (4=61-80%),4 (4=61-80%),5 (5=81-100%),5 (5=81-100%),–,5 (5=81-100%),4 (4=61-80%),4 (4=61-80%),–,–,–,–,–,–,–,–,–,–
